# In US20100248390A1, “COMPOSITIONS AND METHODS FOR IDENTIFYING LIGANDS OF ODORANT RECEPTORS” (DUKE UNIVERSITY, priority 2009, published 2010):
# Like-named read-outs stand apart in the source and are kept apart here.
# Legend:
# Test in all cases: CRE-luciferase assay of odorant receptor activation (Dual-Glo, Hana3A cells, RTP1S), dose-response EC50
# Type in all cases: cell-based
# [1] = target: T1, human odorant receptors (ORs) (Homo sapiens, UniProt Q9P1Q5)
# T1 construct: OR open reading frames were amplified from genomic DNA; expressed in transfected cells; host or cells: Hana3A cells, co-transfected with RTP1S, CRE-luciferase and pRL-SV40
# T1 sequence (Q9P1Q5 1-309): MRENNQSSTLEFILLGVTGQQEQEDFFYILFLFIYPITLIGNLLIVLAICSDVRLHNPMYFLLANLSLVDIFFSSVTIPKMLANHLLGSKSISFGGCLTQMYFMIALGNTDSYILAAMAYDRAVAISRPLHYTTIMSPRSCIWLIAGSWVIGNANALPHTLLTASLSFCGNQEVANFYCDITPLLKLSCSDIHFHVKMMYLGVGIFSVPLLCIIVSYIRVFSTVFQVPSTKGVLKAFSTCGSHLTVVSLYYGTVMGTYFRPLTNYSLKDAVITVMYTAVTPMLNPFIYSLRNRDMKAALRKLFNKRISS
# Excerpt: (§1) Cloning mouse and human ORs. […] OR open reading frames were amplified from genomic DNA using proofreading KOD DNA polymerase (Toyobo/Novagen) and subcloned into pCI expression vectors (Promega) containing the first 20 residues of human rhodopsin (Rho tag). The sequences of the cloned receptors were verified by sequencing (3100 Genetic Analyzer, ABI Biosystems). Immunocytochemistry and FACS analysis. […] For FACS analysis, phycoerythrin (PE)-conjugated anti-mouse IgG (Jackson Immunologicals) was used. In order to monitor the transfection efficiency, Green Fluorescent Protein (GFP) was co-transfected with the OR. The intensity of receptor cell surface expression was calculated as the ratio of PE and GFP expression. 7-aminoactinomycin D (Calbiochem) was added before flow cytometry to mark dead cells which were excluded from the analysis. The gate and mean of PE positive cells was normalized by GFP values. Luciferase assay. […] Odorant receptor activation leads to an increase in intracellular cAMP; CRE-luciferase (Stratagene) was used to measure this change. […] Hana3A cells were plated on poly-D-lysine-coated 96-well plates (BioCoat; Becton Dickinson). […] For each 96-well plate transfected, 1 μg of CRE-Luc, 1 μg of pRL-SV40, 5 μg of odorant receptor plasmid, and 1 μg of RTP1S was used. Approximately 24 hours post transfection, the medium was replaced with CD293 chemically defined medium (Gibco) and the plate was incubed for 30 min at 37° C. The medium was then replaced with 25 μL of odorant solution diluted in CD293 and the plate was incubated for 4 hrs at 37° C. and 5% CO2. The manufacturer's protocols for measuring luciferase and Renilla luciferase activities was followed. […] All luminescence values were divided by the Renilla Luciferase activity to control for transfection efficiency in a given well. Normalized luciferase activity was calculated using the formula (LN−Lmin)/(Lmax−Lmin), where LN is the luminescence of firefly luciferase in response to the odorant, Lmin is the minimum luciferase value on a plate or set of plates, and Lmax is the maximum luciferase value on a plate or set of plates. The data was analyzed using Microsoft Excel and GraphPad Prism 4. Screening procedure. The entire OR library was stimulated with eight separate odorant mixtures formed from 93 odorants (FIG. 12). […] A comparison between the 93 individual odorants at a 100 μM dose and a no-odor control was performed for all 290 […]. Each comparison was performed in triplicate; statistical significance was assessed by t-test (uncorrected for multiple comparisons). […] A single odorant was used on each plate to avoid cross-contamination, and each OR odorant dose was tested at least three times. The data was fit to a sigmoidal curve. […] Physicochemical descriptors. […] Receptor descriptors. […] Correlations between descriptors and responses. […] All odorants for which there were fewer than 3 responsive receptors were eliminated. […] The Pearson correlation between these two sets of distances was then measured. Optimizing descriptors. […] In this method one begins with an empty set of descriptors. Each descriptor is combined with the previous set of descriptors and correlation values are computed for all of these candidate sets of descriptors. To reduce overfitting, the data is randomly divided into ten subsets and correlation values are computed for each leave-one out subset. The final correlation coefficient for each set of descriptors is the average of the correlation coefficients for each subset.
# (§2) The entire OR library was stimulated with one of 8 odorant mixtures drawn from 93 odorants chosen to represent diverse functional groups, sizes, and structures (Table 3). Each mixture was applied at five different concentrations. […] The 93 odorants were then applied individually at 100 μM to the 290 mixture-responsive ORs.
# [2] = test system: mouse odorant receptors (ORs); settings: for log EC50 (Table 4 value), MOR271-1 / log EC50, MOR271-1: receptor MOR271-1
# Excerpt: (§3) Cloning mouse and human ORs. […] OR open reading frames were amplified from genomic DNA using proofreading KOD DNA polymerase (Toyobo/Novagen) and subcloned into pCI expression vectors (Promega) containing the first 20 residues of human rhodopsin (Rho tag). The sequences of the cloned receptors were verified by sequencing (3100 Genetic Analyzer, ABI Biosystems). Immunocytochemistry and FACS analysis. […] For FACS analysis, phycoerythrin (PE)-conjugated anti-mouse IgG (Jackson Immunologicals) was used. In order to monitor the transfection efficiency, Green Fluorescent Protein (GFP) was co-transfected with the OR. The intensity of receptor cell surface expression was calculated as the ratio of PE and GFP expression. 7-aminoactinomycin D (Calbiochem) was added before flow cytometry to mark dead cells which were excluded from the analysis. The gate and mean of PE positive cells was normalized by GFP values. Luciferase assay. […] Odorant receptor activation leads to an increase in intracellular cAMP; CRE-luciferase (Stratagene) was used to measure this change. […] Hana3A cells were plated on poly-D-lysine-coated 96-well plates (BioCoat; Becton Dickinson). […] For each 96-well plate transfected, 1 μg of CRE-Luc, 1 μg of pRL-SV40, 5 μg of odorant receptor plasmid, and 1 μg of RTP1S was used. Approximately 24 hours post transfection, the medium was replaced with CD293 chemically defined medium (Gibco) and the plate was incubed for 30 min at 37° C. The medium was then replaced with 25 μL of odorant solution diluted in CD293 and the plate was incubated for 4 hrs at 37° C. and 5% CO2. The manufacturer's protocols for measuring luciferase and Renilla luciferase activities was followed. […] All luminescence values were divided by the Renilla Luciferase activity to control for transfection efficiency in a given well. Normalized luciferase activity was calculated using the formula (LN−Lmin)/(Lmax−Lmin), where LN is the luminescence of firefly luciferase in response to the odorant, Lmin is the minimum luciferase value on a plate or set of plates, and Lmax is the maximum luciferase value on a plate or set of plates. The data was analyzed using Microsoft Excel and GraphPad Prism 4. Screening procedure. The entire OR library was stimulated with eight separate odorant mixtures formed from 93 odorants (FIG. 12). […] A comparison between the 93 individual odorants at a 100 μM dose and a no-odor control was performed for all 290 […]. Each comparison was performed in triplicate; statistical significance was assessed by t-test (uncorrected for multiple comparisons). […] A single odorant was used on each plate to avoid cross-contamination, and each OR odorant dose was tested at least three times. The data was fit to a sigmoidal curve. […] Physicochemical descriptors. […] Receptor descriptors. […] Correlations between descriptors and responses. […] All odorants for which there were fewer than 3 responsive receptors were eliminated. For all remaining odorant pairs the Pearson correlation between EC50 vectors and the Euclidean distance between descriptor vectors was calculated. The Pearson correlation between these two sets of distances was then measured. Optimizing descriptors. […] In this method one begins with an empty set of descriptors. Each descriptor is combined with the previous set of descriptors and correlation values are computed for all of these candidate sets of descriptors. To reduce overfitting, the data is randomly divided into ten subsets and correlation values are computed for each leave-one out subset. The final correlation coefficient for each set of descriptors is the average of the correlation coefficients for each subset. The set with the best correlation coefficient then becomes the new set of descriptors and the process is repeated until the correlation coefficient increases by less than 0.004 in three consecutive iterations.
# [3] = target: T2, human odorant receptors (ORs) (Homo sapiens, UniProt Q9Y3N9)
# T2 construct: OR open reading frames were amplified from genomic DNA; expressed in transfected cells; host or cells: Hana3A cells, co-transfected with RTP1S, CRE-luciferase and pRL-SV40
# T2 sequence (Q9Y3N9 1-320): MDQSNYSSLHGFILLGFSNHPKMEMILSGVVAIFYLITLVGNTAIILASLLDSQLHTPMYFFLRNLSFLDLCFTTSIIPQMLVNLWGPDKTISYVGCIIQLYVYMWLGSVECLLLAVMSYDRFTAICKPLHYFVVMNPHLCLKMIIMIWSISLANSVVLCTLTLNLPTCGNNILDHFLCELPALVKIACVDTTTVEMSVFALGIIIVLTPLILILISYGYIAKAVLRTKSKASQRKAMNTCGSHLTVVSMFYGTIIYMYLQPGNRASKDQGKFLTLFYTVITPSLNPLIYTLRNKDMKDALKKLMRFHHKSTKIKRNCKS
# Excerpt: as §1, §2
# [4] = target: T3, mouse odorant receptors (ORs) (Mus musculus, UniProt P23275)
# T3 construct: OR open reading frames were amplified from genomic DNA; expressed in transfected cells; host or cells: Hana3A cells, co-transfected with RTP1S, CRE-luciferase and pRL-SV40
# T3 sequence (P23275 1-312): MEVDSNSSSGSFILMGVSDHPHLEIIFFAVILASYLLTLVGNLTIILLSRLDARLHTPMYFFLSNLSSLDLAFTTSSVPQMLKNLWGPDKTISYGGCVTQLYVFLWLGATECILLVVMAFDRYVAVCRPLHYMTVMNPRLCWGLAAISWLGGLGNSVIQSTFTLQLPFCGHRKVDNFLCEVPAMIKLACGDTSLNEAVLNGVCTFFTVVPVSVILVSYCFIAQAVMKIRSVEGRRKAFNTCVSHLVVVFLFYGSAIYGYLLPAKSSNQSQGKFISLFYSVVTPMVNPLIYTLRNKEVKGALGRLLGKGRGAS
# Excerpt: as §3
# [5] = receptor OR1A1, read-out: log EC50 (Table 4 value), OR1A1 (converted)
# [6] = receptor MOR203-1, 0 = no response
# [7] = receptor OR1A1, 0 = no response, read-out: log EC50, OR1A1 (converted)
# [8] = receptor OR2W1, 0 = no response, read-out: log EC50, OR2W1 (converted)
# [9] = receptor MOR272-1, 0 = no response
# [10] = receptor MOR41-1, 0 = no response
smiles,measurement,setting,value
C=CCOC(=O)CCCCCC [Allyl heptanoate],EC50,[1]; [5],475 µM
CCCCCCCC(C)=O [2-Noranone],"log EC50, MOR203-1",[2]; [6],−5.064
same,EC50,[1]; [7],265 µM
same,EC50,[3]; [8],19.9 µM
CCC(=O)C(=O)CC [34-Hexanedione],EC50,[4],12 µM
same,"log EC50 (Table 4 value), MOR41-1",[2]; receptor MOR41-1,−4.692
same,"log EC50 (Table 4 value), MOR271-1",[2],−4.734
same,EC50,[3],16.6 µM
CCCCCC(C)=O [2-Haptonone],"log EC50, MOR203-1",[2]; [6],−4.76
same,"log EC50, MOR271-1",[2]; 0 = no response,−4.581
same,"log EC50, MOR272-1",[2]; [9],−5.073
same,EC50,[1]; [7],39.9 µM
same,EC50,[3]; [8],7.21 µM
CCCC(=O)C(C)=O [23-Haxanedione],EC50,"[4]; receptor MOR256-17, 0 = no response, read-out: log EC50, MOR256-17 (converted)",14.5 µM
same,"log EC50, MOR41-1",[2]; [10],−5.008
same,"log EC50, MOR271-1",[2]; 0 = no response,−4.824
same,EC50,[3]; [8],434 µM
O=C(c1ccccc1)c1ccccc1 [Benzophenone],"log EC50 (Table 4 value), MOR162-1",[2]; receptor MOR162-1,−3.685
same,"log EC50 (Table 4 value), MOR259-1",[2]; receptor MOR259-1,−4.442
same,"log EC50 (Table 4 value), MOR269-1",[2]; receptor MOR269-1,−3.652
same,EC50,[1],98.2 µM
same,EC50,[3],28.8 µM
CCCCCCC(C)=O [2-Octanone],"log EC50, MOR203-1",[2]; [6],−5.023
same,"log EC50, MOR272-1",[2]; [9],−4.575
same,EC50,[1]; [7],42.7 µM
same,EC50,[3]; [8],39.9 µM
C=CCc1ccccc1 [Allyl benzene],EC50,[4],71.4 µM
same,"log EC50 (Table 4 value), MOR105-1",[2]; receptor MOR105-1,−3.332
same,"log EC50 (Table 4 value), MOR106-1",[2]; receptor MOR106-1,−3.921
O=C1Cc2ccccc2O1 [2-Counpronon ?],"log EC50, MOR256-17","[4]; receptor MOR256-17, 0 = no response",−4.575
same,"log EC50, MOR1-1","[2]; receptor MOR1-1, 0 = no response",−4.138
same,"log EC50, MOR41-1",[2]; [10],−3.96
same,"log EC50, MOR139-1","[2]; receptor MOR139-1, 0 = no response",−3.585
same,"log EC50, MOR258-1","[2]; receptor MOR258-1, 0 = no response",−4.268
same,"log EC50, MOR259-1","[2]; receptor MOR259-1, 0 = no response",−3.63
CCCCCCO [Hexanol],"log EC50 (Table 4 value), MOR1-1",[2]; receptor MOR1-1,−3.987
same,"log EC50 (Table 4 value), MOR4-1",[2]; receptor MOR4-1,−3.231
same,"log EC50 (Table 4 value), MOR271-1",[2],−3.322
same,"log EC50 (Table 4 value), OR2W1",[3]; receptor OR2W1,−5.102
CCCCC(=O)CC [3-Haptonone],"log EC50, MOR203-1",[2]; [6],−4.099
same,"log EC50, MOR271-1",[2]; 0 = no response,−5.235
same,"log EC50, MOR272-1",[2]; [9],−5.221
same,EC50,[1]; [7],19.4 µM
same,EC50,[3]; [8],33.3 µM
CCCCCC(=O)CC [3-Octanone],"log EC50 (Table 4 value), MOR203-1",[2]; receptor MOR203-1,−4.4
same,"log EC50 (Table 4 value), MOR271-1",[2],−4.139
same,"log EC50 (Table 4 value), MOR272-1",[2]; receptor MOR272-1,−4.197
same,EC50,[1]; [5],5.12 µM
same,EC50,"[3]; receptor OR2W1, read-out: log EC50 (Table 4 value), OR2W1 (converted)",9.55 µM
